Source: ChEMBL document CHEMBL3045091, “Synthesis and antimicrobial activities of some new 5-((3-(aryl)-1-phenyl-1H-pyrazol-4-yl)methylene)-3-phenylthiazolidine-2,4-diones” (2012)
Converted amounts (≈) assume the structure as drawn. The source made the active and inactive calls. No cut-off for these calls is given here.

Assays:
Staphylococcus aureus [1] = assay: Antibacterial activity against Staphylococcus aureus MTCC 96 at 4 mg/ml after 24 hr by agar well diffusion method; format: functional; conditions: MTCC 96, 24 h, read-out: DIZ
Aspergillus flavus = assay: Antifungal activity against Aspergillus flavus after 7 days by poisoned food technique; format: functional
Aspergillus niger = assay: Antifungal activity against Aspergillus niger after 7 days by poisoned food technique; format: functional
Staphylococcus aureus [2] = assay: Antibacterial activity against Staphylococcus aureus MTCC 96 after 24 hr by macro dilution tube method; format: functional; conditions: MTCC 96, 24 h
Bacillus subtilis [3] = assay: Antibacterial activity against Bacillus subtilis MTCC 121 after 24 hr by macro dilution tube method; format: functional; conditions: MTCC 121, 24 h
Bacillus subtilis [4] = assay: Antibacterial activity against Bacillus subtilis MTCC 121 at 4 mg/ml after 24 hr by agar well diffusion method; format: functional; conditions: MTCC 121, 24 h, read-out: DIZ
Escherichia coli = assay: Antibacterial activity against Escherichia coli MTCC 1652 at 4 mg/ml after 24 hr by agar well diffusion method; format: functional, organism-based
Pseudomonas aeruginosa [5] = conditions: MTCC 741, 4 mg/ml
Description: (§1) Antibacterial activity against Pseudomonas aeruginosa MTCC 741 at 4 mg/ml after 24 hr by agar well diffusion method

Pseudomonas aeruginosa [6] = assay: microbe, parasite or virus in culture; conditions: MTCC 741, 24 h, read-out: DIZ
Description: as §1

Compound	zone of inhibition at 4000 µg/mL (Staphylococcus aureus [1])	growth inhibition (GI) (Aspergillus flavus)	growth inhibition (GI) (Aspergillus niger)	MIC (Staphylococcus aureus [2])	MIC (Bacillus subtilis [3])	zone of inhibition at 4000 µg/mL (Bacillus subtilis [4])	diameter of the inhibition zone (DIZ) (Escherichia coli)	DIZ (Pseudomonas aeruginosa [5])	zone of inhibition at 4000 µg/mL (Pseudomonas aeruginosa [6])
O=C1S/C(=C\c2cn(-c3ccccc3)nc2-c2ccccc2)C(=O)N1c1ccccc1	18.6 mm	50%	55.5%	128 µg/mL (≈ 302 µM)	64 µg/mL (≈ 151 µM)	19.3 mm	inactive	inactive	
O=C1S/C(=C\c2cn(-c3ccccc3)nc2-c2ccc(F)cc2)C(=O)N1c1ccccc1	19.3 mm	55.5%	55.5%	128 µg/mL (≈ 290 µM)	32 µg/mL (≈ 72.5 µM)	20.6 mm	inactive	inactive	
O=C1S/C(=C\c2cn(-c3ccccc3)nc2-c2ccc(Br)cc2)C(=O)N1c1ccccc1	21.6 mm	55.5%	38.8%	32 µg/mL (≈ 63.7 µM)	32 µg/mL (≈ 63.7 µM)	20.6 mm	inactive	inactive	
OC(Cn1cncn1)(Cn1cncn1)c1ccc(F)cc1F [FLUCONAZOLE]		77.7%	81.1%						
O=C(O)c1cn(C2CC2)c2cc(N3CCNCC3)c(F)cc2c1=O [CIPROFLOXACIN]	26 mm			5 µg/mL (≈ 15.1 µM)	5 µg/mL (≈ 15.1 µM)	24 mm			22 mm
O=C1S/C(=C\c2cn(-c3ccccc3)nc2-c2ccc(O)cc2)C(=O)N1c1ccccc1	20.3 mm	44.4%	50%	64 µg/mL (≈ 146 µM)	128 µg/mL (≈ 291 µM)	18.3 mm	inactive	inactive	
O=C1S/C(=C\c2cn(-c3ccccc3)nc2-c2cccs2)C(=O)N1c1ccccc1	22.3 mm	33.3%	50%	32 µg/mL (≈ 74.5 µM)	32 µg/mL (≈ 74.5 µM)	21.6 mm	inactive	inactive	
O=C1S/C(=C\c2cn(-c3ccccc3)nc2-c2ccc([N+](=O)[O-])cc2)C(=O)N1c1ccccc1	20.6 mm	61.1%	50%	64 µg/mL (≈ 137 µM)	128 µg/mL (≈ 273 µM)	18.3 mm	inactive	inactive	
COc1ccc(-c2nn(-c3ccccc3)cc2/C=C2\SC(=O)N(c3ccccc3)C2=O)cc1	18.6 mm	66.6%	50%	128 µg/mL (≈ 282 µM)	128 µg/mL (≈ 282 µM)	16.6 mm	inactive	inactive	
O=C1S/C(=C\c2cn(-c3ccccc3)nc2-c2ccc(Cl)cc2)C(=O)N1c1ccccc1	20.6 mm	61.1%	55.5%	64 µg/mL (≈ 140 µM)	128 µg/mL (≈ 280 µM)	18.3 mm	inactive	inactive	
Cc1ccc(-c2nn(-c3ccccc3)cc2/C=C2\SC(=O)N(c3ccccc3)C2=O)cc1	18.3 mm	50%	44.4%	128 µg/mL (≈ 293 µM)	64 µg/mL (≈ 146 µM)	19.6 mm	inactive	inactive	
